Laboratory results: patent publication US6949516B2, “Dipeptide apoptosis inhibitors and the use thereof” (Cytovia, Inc., priority 1997, dated 2005)

Key:
Caspase-3 [1] = biological target: T1, Caspase-3 (Homo sapiens, UniProt P42574); assay: Recombinant caspase assay with Ac-DEVD-AMC, caspase-3; type: biochemical; conditions: 10 μM Ac-DEVD-AMC, 30 minutes at 37° C.
T1 sequence (P42574 29-175 limits assumed): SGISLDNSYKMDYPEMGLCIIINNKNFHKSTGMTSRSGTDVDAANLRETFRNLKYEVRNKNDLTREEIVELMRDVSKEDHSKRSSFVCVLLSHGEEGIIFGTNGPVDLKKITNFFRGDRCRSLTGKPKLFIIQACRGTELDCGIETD
Description: (§1) The inhibitory activity of Cbz-Val-Asp-CH2F in recombinant caspase 3, 6, 7 and 8 obtained from PharMington (a Becton division company, San Diego, Calif.) were measured using Ac-DEVD-AMC (SEQ ID NO:1). The amount of each enzyme per assay was as following: 1 ng caspase3, 15 ng caspase6, 2 ng caspase7 and 60 ng caspase8. The enzyme reaction was conducted in 96-well plate using a caspase buffer (20 mM PIPES, 100 mM NaCl, 10 mM DTT, 1 mM EDTA, 0.1% CHAPS and 10% sucrose, pH 7.2) and the reaction was initiated by adding 10 μM Ac-DEVD-AMC (SEQ ID NO:1) (purchased from Quality Controlled Biochemicals, Inc. Hopkinton, Mass.). Twelve concentrations of Cbz-Val-Asp-CH2F ranged from 30 μM to […] were tested after incubation of the compound with recombinant caspases for 30 minutes at 37° C. […] The data was analyzed using GraphPrism software.

[2] = tested on: rat transient focal ischemia model; assay: Rat transient focal ischemia model; type: in vivo; conditions: for reduction of cortical infarction: p<0.05
Description: (i) Preparative Surgery: Male Fischer-344 rats (Harlan Sprague Dawley, Calif.) weighing 200-240 g, were used. Animals were initially anesthetized with 3% halothane in a mixture of 30% oxygen and 70% air. Halothane level were reduced to 1.5% for maintenance of anesthesia throughout surgery. […] (b) Arterial catheter implantation: the femoral artery were cannulated to allow monitoring of the blood pressure, and other physiological conditions include pO2, pCO2, pH, glucose, hematocrite, during ischemia, initial drug administration, and the time of arterial reperfusion. Both arterial and venous catheters were exteriorized through the back of the animal, to allow free movement. (c) A PhysioTel Transmitter (Data Sciences International, Mich.) were implanted into the peritoneal cavity to remotely monitor the body temperature of the animals for 22 hours.
(ii) Physiological parameters: Core body temperature was maintained at 37.5° C. during surgery, using a YSI Reusable Temperature Probe (YSI Co. Inc., Yellow Spring, Ohio) connected to a YSI Temperature Control Unit (Model 73A, YSI Co. Inc., Ohio) and a Electric Heating Pad (Model 756, Sunbean-Oster Co. Inc., Hattiesburg, Miss.). Following ischemia, the PhysioTel Transmitter was activated and core body temperature was recorded every 5 minutes. Systemic blood pressure was monitored throughout surgery, during intravenous drug infusion (bolus), and 1, 2, 3, and 4 hours after the onset of ischemia. Other physiological conditions, including pO2, pCO2, pH, glucose, and hematocrite were examined at the time of arterial occlusion and reperfusion.
(iii) Transient focal ischemia model: Following preparative surgery, a ventral midline cervical incision was made to expose both CCAs. The right CCA was permanently ligated with 4-o silk ligature, while the left CCA was clamped with an atraumatic aneurysm clip. A 1-cm incision perpendicular to and bisecting a line between the lateral canthus of the right eye and the external auditory canal was made. The underlying temporalis muscle was excised and retracted and under direct visualization with the aid of a dissecting microscope (Model SZ-STB1, Olympus, Japan), the middle cerebral artery (MCA) was exposed through a 2 mm burr hole drilled 2-3 mm rostral to the fusion of the zygomatic arch and the squamosal bone. Drilling was done under a continuous irrigation of physiological saline. The dura was cut and retracted to expose the MCA in the rhinal fissure. A Codman micro-aneurysm clip (No. 1) was used to temporarily occlude the MCA as it crosses the rhinal fissure. […] The areas of cortical and subcortical infarction were measured blindly with imaging processing software, and the volume of infarction was calculated by adding up individual measures with known thickness. […]

Caspase-6 = biological target: T2, Caspase-6 (Homo sapiens, UniProt P55212); assay: Recombinant caspase assay with Ac-DEVD-AMC, caspase-6; type: biochemical; conditions: 10 μM Ac-DEVD-AMC, 30 minutes at 37° C.
T2 construct: purchased PharMington (PharMingen, a Becton division company, San Diego, Calif.)
T2 sequence (P55212 24-179 limits assumed): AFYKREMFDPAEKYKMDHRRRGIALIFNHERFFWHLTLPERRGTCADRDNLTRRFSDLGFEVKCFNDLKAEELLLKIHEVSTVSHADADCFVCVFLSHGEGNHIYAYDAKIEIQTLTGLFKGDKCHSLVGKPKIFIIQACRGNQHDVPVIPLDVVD
Description: as §1

Caspase-3 [3] = biological target: T1, Caspase-3; assay: Caspase-3 activity of the dipeptide inhibitors (Table III); type: biochemical

`CC(C)[C@H](NC(=O)OCc1ccccc1)C(=O)NC(CC(=O)O)C(=O)CF` (stereo partly drawn) [Cbz-Val-Asp-CH2F, Z-Val-Asp-fmk] was tested. Which IC50 (Caspase-3 [1]) did it give?
The IC50 was 19.8 nM.

What about the “reduction of cortical infarction” value ([2]; Experiment 1: rat, 20 mg/kg IV bolus 10 minutes after onset of ischemia + 5 mg/kg/hr IV infusion for 6 h) of the same molecule?
Its value is 46%.

What about the “reduction of cortical infarction” value ([2]; Experiment 2: rat, 20 mg/kg IV bolus 10 minutes after onset of ischemia + 5 mg/kg/hr IV infusion for 12 h) of the same molecule?
The value was 57%.

And the “tolerability following acute IV dosing” value ([2]; rat)?
The value was “well tolerated”.

What about the “changes in blood pressure, blood gas, or temperature following drug administration” value ([2]; rat, 20 mg/kg IV bolus + 5 mg/kg/hr infusion) of the same molecule?
The value was “no changes”.

What about the IC50 (Caspase-6) of the same molecule?
Its IC50 is 18.4 nM.

And the IC50 (Caspase-3 [3])?
The IC50 was 40 nM.
